{"source": "patent US20060063794A1", "about": "“Method of attenuating graft rejection” (Fujisawa Pharmaceutical Co., Ltd., priority 2004, published 2006)", "system": "human kidney transplant recipients", "experiment": "Same trial: safety, adverse events, laboratory values, withdrawals", "assay_type": "in vivo", "settings": "for Median serum creatine value: at study end; for Mean hemoglobin level: day 84", "experimental": "FK778 and placebo were administered in a double-blind manner. […] Patients in arm 2 received one dose of 600 mg/day and continued on 75 mg/day. Subsequent doses were adjusted to maintain trough levels of FK778 in the range of 100-200 μg/mL (arm 1) and 10-100 μg/mL (arm 2). Trough levels of FK778 were centrally determined. Doses of FK778 were adjusted according to the recommendations of an independent panel. Treatment of adults of both genders was studied in a multi-center, randomized, double-blind trial. Three groups were studied. Group H was treated with high dose FK778/tarcolimus/steroids; Group L was treated with low dose FK778/tarcolimus/steroids; and Group P was treated with placebo/Tacrolimus/steroids. Tacrolimus was given as an initial dose of 0.2 mg/kg per os divided into two equal doses, one pre-operatively and one post-operatively. Subsequent doses were adjusted to reach target Tacrolimus whole blood trough concentrations of 10-20 ng/mL on Days 0-30, and 5-15 ng/mL on Days 31-84. Methylprednisolone was perioperatively administered at 1000 mg i.v. or less and 125 mg on Day 1. A prednisolone equivalent was given orally at 20 mg from Day 2-14, at 15 mg on Day 15-28, at 10 mg from Day 29-42 and 5 mg from Day 43-84. Oral tablets of FK778/placebo were administered in a double-blind manner. […] This was the maximum permitted daily dose of FK778. […] Dose adaptations were to be performed from day 7 onwards. Subsequent doses were adjusted to maintain plasma trough levels of FK778 in the target ranges of 100-200 μg/mL (H) and 10-100 μg/mL (L). The primary efficacy endpoint was the incidence of AR proven by local biopsy over the first 12 weeks. […] On a continuous basis safety was assessed by patient and graft survival, adverse event monitoring, routine laboratory evaluations and vital signs. Treatment emergent adverse events were coded according to the MedDRA dictionary (version 5.0). All analyses were based on the full analysis set which included all patients randomised who received at least one dose of FK778/placebo (intent-to-treat principle). Decreasing Kaplan-Meier plots were provided. Pair-wise comparisons of the incidence of adverse events between the treatment groups were made using Fisher's exact test.", "note": "Entries after “also recorded” stand apart in the source; their conditions may differ."}
{"smiles": "C#CCC/C(O)=C(\\C#N)C(=O)Nc1ccc(C(F)(F)F)cc1", "note": "[FK778, (2Z)-2-cyano-3-hydroxy-N-[4-(trifluromethyl)phenyl]-2-hepten-6-ynamide]", "values": [{"measurement": "Overall assessment of the trial", "setting": "FK778 with Tacrolimus and corticosteroids, renal transplantation", "value": "pharmacologically active, well tolerated, and safe; also recorded: pharmacologically active, well tolerated and safe"}, {"measurement": "Anemias NEC, number of patients", "setting": "High level FK778 (group H)", "value": 21}, {"measurement": "Angina pectoris, number of patients", "setting": "High level FK778 (group H)", "value": 1}, {"measurement": "Hyperkalemia (%)", "setting": "High level FK778 (group H)", "value": "(4.1) %"}, {"measurement": "Hyperkalemia, number of patients", "setting": "High level FK778 (group H)", "value": 2}, {"measurement": "Hypokalemia (%)", "setting": "High level FK778 (group H)", "value": "(12.2) %"}, {"measurement": "Hypokalemia, number of patients", "setting": "High level FK778 (group H)", "value": 6}, {"measurement": "Ischemic coronary artery disorders (%)", "setting": "High level FK778 (group H)", "value": "(4.1) %"}, {"measurement": "Ischemic coronary artery disorders, number of patients", "setting": "High level FK778 (group H)", "value": 2}, {"measurement": "Myocard. Ischemia, number of patients", "setting": "High level FK778 (group H)", "value": 1}, {"measurement": "O. NOS, number of patients", "setting": "High level FK778 (group H)", "value": 1}, {"measurement": "O. hemorrhagic, number of patients", "setting": "High level FK778 (group H)", "value": 1}, {"measurement": "Oesophagilis (%)", "setting": "High level FK778 (group H)", "value": "(8.2) %"}, {"measurement": "Oesophagilis, number of patients", "setting": "High level FK778 (group H)", "value": 4}, {"measurement": "Reflux O., number of patients", "setting": "High level FK778 (group H)", "value": 2}, {"measurement": "Withdrawn: Adverse event (%)", "setting": "High level FK778 (group H)", "value": "(18.4) %"}, {"measurement": "Withdrawn: Adverse event, number of patients", "setting": "High level FK778 (group H)", "value": 9}, {"measurement": "Withdrawn: Death (%)", "setting": "High level FK778 (group H)", "value": "(2.0) %"}, {"measurement": "Withdrawn: Death, number of patients", "setting": "High level FK778 (group H)", "value": 1}, {"measurement": "Withdrawn: Graft failure (%)", "setting": "High level FK778 (group H)", "value": "(6.1) %"}, {"measurement": "Withdrawn: Graft failure, number of patients", "setting": "High level FK778 (group H)", "value": 3}, {"measurement": "Withdrawn from treatment (%)", "setting": "High level FK778 (group H) + Tacrolimus/steroids", "value": "(28.6) %"}, {"measurement": "Withdrawn from treatment, number of patients", "setting": "High level FK778 (group H) + Tacrolimus/steroids, N=49", "value": 14}, {"measurement": "Anemias NEC, number of patients", "setting": "Low level FK778 (group L)", "value": 17}, {"measurement": "Angina pectoris, number of patients", "setting": "Low level FK778 (group L)", "value": 5}, {"measurement": "Hyperkalemia (%)", "setting": "Low level FK778 (group L)", "value": "(11.1) %"}, {"measurement": "Hyperkalemia, number of patients", "setting": "Low level FK778 (group L)", "value": 6}, {"measurement": "Hypokalemia (%)", "setting": "Low level FK778 (group L)", "value": "(0.0) %"}, {"measurement": "Hypokalemia, number of patients", "setting": "Low level FK778 (group L)", "value": 0}, {"measurement": "Ischemic coronary artery disorders (%)", "setting": "Low level FK778 (group L)", "value": "(13.0) %"}, {"measurement": "Ischemic coronary artery disorders, number of patients", "setting": "Low level FK778 (group L)", "value": 7}, {"measurement": "Myocard. Infarction, number of patients", "setting": "Low level FK778 (group L)", "value": 1}, {"measurement": "Myocard. Ischemia, number of patients", "setting": "Low level FK778 (group L)", "value": 1}, {"measurement": "Oesophagilis (%)", "setting": "Low level FK778 (group L)", "value": "(0.0) %"}, {"measurement": "Oesophagilis, number of patients", "setting": "Low level FK778 (group L)", "value": 0}, {"measurement": "Withdrawn: Adverse event (%)", "setting": "Low level FK778 (group L)", "value": "(13.0) %"}, {"measurement": "Withdrawn: Adverse event, number of patients", "setting": "Low level FK778 (group L)", "value": 7}, {"measurement": "Withdrawn: Graft failure (%)", "setting": "Low level FK778 (group L)", "value": "(5.6) %"}, {"measurement": "Withdrawn: Graft failure, number of patients", "setting": "Low level FK778 (group L)", "value": 3}, {"measurement": "Withdrawn from treatment (%)", "setting": "Low level FK778 (group L) + Tacrolimus/steroids", "value": "(25.9) %"}, {"measurement": "Withdrawn from treatment, number of patients", "setting": "Low level FK778 (group L) + Tacrolimus/steroids, N=54", "value": 14}, {"measurement": "Withdrawn: Death, number of patients", "setting": "Low level FK778 (group L), one patient died the day after withdrawal", "value": 0}, {"measurement": "Reversibility of anemia", "setting": "after cessation of FK778 treatment", "value": "reversible after cessation of FK778 treatment; also recorded: quickly reversed after cessation of FK778 treatment"}, {"measurement": "Systolic and diastolic blood pressure values", "setting": "both FK778 arms", "value": "trend towards lower"}, {"measurement": "Mean total cholesterol and mean LDL-cholesterol levels, lower compared to placebo group", "setting": "both FK778 groups, during the treatment phase", "value": "~20", "unit": "%"}, {"measurement": "Bilirubin levels", "setting": "group H", "value": "slightly elevated"}, {"measurement": "Median serum creatine value", "setting": "group H", "value": 138, "unit": "µmol/L"}, {"measurement": "Mean hemoglobin level", "setting": "group H", "value": 102.6, "unit": "g/L"}, {"measurement": "Patients who died during the study", "setting": "group H, high level FK778", "value": "one"}, {"measurement": "Median serum creatine value", "setting": "group L", "value": 149, "unit": "µmol/L"}, {"measurement": "Mean hemoglobin level", "setting": "group L", "value": 119, "unit": "g/L"}, {"measurement": "Patients who died during the study", "setting": "group L, low level FK778", "value": "one"}, {"measurement": "Liver enzyme values", "setting": "throughout the study", "value": "no changes"}]}
